Common to all, as to test: NCI anticancer screen, dose series, 48 h
Assay [1] deals with 786-0.
Assay [2] relates to IGROV-1.
Assay [3] has as its system DU-145.
The test system of assay [4] is UACC-62.
The test system of assay [5] is LOX IMVI.
For assay [6], the system named is RXF 393.
The subject of assay [7] is BT-549.
In assay [8] the test system is MOLT-4.
For assay [9], the system named is SF-539.
The subject of assay [10] is SR.
Assay [11] deals with RPMI-8226.
The subject of assay [12] is U-251.
In assay [13] the test system is CCRF-CEM.
The subject of assay [14] is Malme-3M.
The test system of assay [15] is CAKI-1.
The test system of assay [16] is NCI-H23.
For assay [17], the system named is HCT-15.
Assay [18] deals with K562.
In assay [19] the test system is OVCAR-4.
Assay [20] deals with HCT-116.

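All cell lines were grown in 96-well plates and treated with compound for 48 hours. GI50 is the concentration that inhibits growth by half.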 Activity calls are given as the source filed them. Cut-off read from the data, not from the text of the source: active = GI50 up to about 1.1 µM and inactive = higher.

Here are results for ten compounds from ChEMBL document CHEMBL1201862, “PubChem BioAssay data set” (2004).

Turning to `CC(=O)OCC1OC(n2cnc3nc(Br)[nH]c(=O)c32)C(OC(C)=O)C1OC(C)=O` (stereo not given), the GI50 in assay [1], in assay [2], in assay [3], in assay [4], in assay [5] and in assay [6] was > 100 µM (inactive) each time. In addition, the GI50 in [7], in assay [8], in assay [9], in assay [10], in assay [11] and in assay [12] was > 100 µM (inactive) each time. Further, the GI50 is > 100 µM (inactive) in assay [13]; > 100 µM (inactive) in assay [14]; > 100 µM (inactive) in assay [15]; > 100 µM (inactive) in assay [16]; above 100 µM in [17]; > 100 µM (inactive) in [18]. Also, the GI50 in [19] and in assay [20] was > 100 µM (inactive) each time.
As to `COc1cc2c(c3c1c(=O)c1ccccc1n3C)C=CC1(CCCCC1)O2`, the GI50 was 1.04 µM (active) in assay [1]; 2.15 µM (inactive) in assay [2]; > 9.1 µM (inactive) in assay [3]; 4.14 µM (inactive) in [4]; 3.75 µM (inactive) in [5]; 0.822 µM (active) in assay [6]. Also, the GI50 in assay [7] was 4.84 µM (inactive); in assay [8], 3.11 µM (inactive); in [9] it was 1.57 µM (inactive); in assay [10], 1.95 µM (inactive); in assay [11], 0.455 µM (active); in [12] it was 4.03 µM (inactive). Also, the GI50 in [13] was 2.55 µM (inactive); in assay [14], 3.43 µM (inactive); in [15] it was 0.764 µM (active); in [16], > 7.67 µM (inactive); in [17], 3.08 µM; in [18], 1.56 µM (inactive). The GI50 is 4.65 µM (inactive) in assay [19] and 2.88 µM (inactive) in [20].
In the case of `CCOC(=O)c1nnc2c(C(=O)OCC)c3ccccc3n2c1N`, the GI50 in assay [1] was 67 µM (inactive); in assay [2] it was 1.12 µM (active); in [3] it was 37.4 µM (inactive); in assay [4] it was 2.43 µM (inactive); in [5], 5.96 µM (inactive); in assay [6] it was > 100 µM (inactive). Also, the GI50 in assay [7] was 13.7 µM (inactive); in assay [8], 4.41 µM (inactive); in assay [9], 5.66 µM (inactive); in [10], 6.92 µM (inactive); in [11] it was 1.54 µM (inactive); in [12] it was 5.41 µM (inactive). Besides, the GI50 was 2.22 µM (inactive) in [13]; 2.1 µM (inactive) in assay [14]; 7.48 µM (inactive) in [15]; 5.94 µM (inactive) in assay [16]; 7.66 µM in assay [17]; 11.2 µM (inactive) in assay [18]. In addition, the GI50 in [19] was 5.2 µM (inactive); in assay [20] it was 29.3 µM (inactive).
Take `CCN(CC)CCC(=O)c1ccc(Oc2ccc(F)cc2)cc1`: the GI50 is 14.8 µM (inactive) in assay [1]; 20.3 µM (inactive) in assay [2]; 23.8 µM (inactive) in assay [3]; 17.9 µM (inactive) in [4]; 15.4 µM (inactive) in [5]; 16.2 µM (inactive) in assay [6]. Further, the GI50 in [7] was 18.3 µM (inactive); in [8], 20.2 µM (inactive); in assay [9] it was 17.3 µM (inactive); in [10], 12.5 µM (inactive); in assay [11], 4.57 µM (inactive); in assay [12], 17.1 µM (inactive). Moreover, the GI50 in assay [13] is 20.6 µM (inactive); in assay [14], 18.5 µM (inactive); in assay [15] it was 17.1 µM (inactive); in assay [16], 20.6 µM (inactive); in [17], 18.2 µM; in [18], 38.3 µM (inactive). Besides, the GI50 was 39.4 µM (inactive) in assay [19] and 16.6 µM (inactive) in assay [20].
Consider `CC1(C)CCCCCCC2CC2CCCCCC(C)(C)C1=O` (stereo not given), for which the GI50 in assay [1] was 64 µM (inactive); in assay [2], > 100 µM (inactive); in assay [3], > 100 µM (inactive); in assay [4], > 100 µM (inactive); in assay [5], 19.8 µM (inactive); in assay [6], 24.3 µM (inactive). For the same compound, the GI50 is > 100 µM (inactive) in assay [7]; 33.5 µM (inactive) in [8]; > 100 µM (inactive) in assay [9]; 0.787 µM (active) in [10]; 24.4 µM (inactive) in [11]; 36.6 µM (inactive) in assay [12]. The GI50 was 19.1 µM (inactive) in assay [13]; > 100 µM (inactive) in assay [14]; > 100 µM (inactive) in [15]; 69.2 µM (inactive) in assay [16]; 78.7 µM in [17]; 29.9 µM (inactive) in [18]. In addition, the GI50 in [19] was > 100 µM (inactive); in assay [20], 39.1 µM (inactive).
On to `CS(=O)(=O)OCCN(CCOS(C)(=O)=O)c1ccc(C=O)cc1`, for which the GI50 was 0.365 µM (active) in assay [1]; 12.8 µM (inactive) in [2]; 0.505 µM (active) in assay [3]; 1.27 µM (inactive) in assay [4]; 5.08 µM (inactive) in [5]; 0.432 µM (active) in assay [6]. Also, the GI50 was 13 µM (inactive) in assay [7]; 0.233 µM (active) in assay [8]; 2.18 µM (inactive) in [9]; 0.236 µM (active) in [10]; 8.63 µM (inactive) in [11]; 8.07 µM (inactive) in [12]. Moreover, the GI50 is 0.897 µM (active) in assay [13]; 8.77 µM (inactive) in assay [14]; 0.427 µM (active) in assay [15]; 1.63 µM (inactive) in assay [16]; 9.84 µM in [17]; 20.1 µM (inactive) in assay [18]. Also, the GI50 in assay [19] is 13 µM (inactive); in assay [20], 31.4 µM (inactive).
In the case of `CC(=O)Nc1cc2ccc(=O)oc2cc1Cl`, the GI50 in assay [1], in [2], in [3], in assay [4], in assay [5] and in assay [6] was > 100 µM (inactive) throughout. For the same compound, the GI50 in assay [7], in assay [8], in assay [9], in [10], in [11] and in [12] was > 100 µM (inactive) in each case. The GI50 is > 100 µM (inactive) in assay [13]; > 100 µM (inactive) in [14]; > 100 µM (inactive) in assay [15]; > 100 µM (inactive) in assay [16]; above 100 µM in assay [17]; > 100 µM (inactive) in [18]. For the same compound, the GI50 in assay [19] and in assay [20] was > 100 µM (inactive) throughout.
On to `C=C1CC[C@@H](CCC2CCC3(OC2)O[C@]2(O)CC[C@@]3(C)OC2(C)C)C(C)(C)[C@H]1C/C=C1\CCOC1=O` (stereo not given in full), for which the GI50 in assay [1] is 11.8 µM (inactive); in [2], 18.5 µM (inactive); in assay [3], 12.5 µM (inactive); in assay [4], 27 µM (inactive); in assay [5], 0.131 µM (active); in assay [6], 14.9 µM (inactive). Also, the GI50 in [7] was 11.7 µM (inactive); in assay [8], 1.97 µM (inactive); in assay [9], 5.3 µM (inactive); in [10] it was 2.67 µM (inactive); in [11] it was 1.9 µM (inactive); in assay [12] it was 15.1 µM (inactive). For the same compound, the GI50 in assay [13] is 10.4 µM (inactive); in assay [14], 16.7 µM (inactive); in assay [15], 35.1 µM (inactive); in [16] it was 0.444 µM (active); in assay [17], 11.3 µM; in assay [18], 0.0798 µM (active). The GI50 in assay [19] was 12.3 µM (inactive); in [20], 0.354 µM (active).
For the compound `NCCCCC(N)C(=O)N1CCN(c2nc(N3CCCC3)c3nc(Cl)c(NCc4ccccc4)nc3n2)CC1` (stereo not given), the GI50 is 17.8 µM (inactive) in assay [1]; 14.1 µM (inactive) in assay [2]; 16.9 µM (inactive) in [3]; 17.9 µM (inactive) in assay [4]; 17.5 µM (inactive) in assay [5]; 15.9 µM (inactive) in assay [6]. Further, the GI50 in assay [7] was 18.5 µM (inactive); in [8], 24.5 µM (inactive); in assay [9], 18.5 µM (inactive); in [10], 18.1 µM (inactive); in assay [11] it was 17.8 µM (inactive); in [12], 18.9 µM (inactive). In addition, the GI50 in assay [13] is 15.5 µM (inactive); in assay [14] it was 23 µM (inactive); in assay [15], 31 µM (inactive); in assay [16] it was 19.4 µM (inactive); in assay [17] it was 17.7 µM; in assay [18], 21.9 µM (inactive). For the same compound, the GI50 in [19] was 23.2 µM (inactive); in [20], 16.6 µM (inactive).
With `O=C(CC(=O)c1ccccc1NC1=Cc2ccccc2C(=O)C1=O)C(=O)NC1=C(Cl)C(=O)c2ccccc2C1=O`, the GI50 in [1] was 2.48 µM (inactive); in [2], 5.79 µM (inactive); in assay [3], 5.71 µM (inactive); in [4], 1.85 µM (inactive); in assay [5] it was 1.13 µM (inactive); in [6] it was 2.34 µM (inactive). For the same compound, the GI50 is 3.76 µM (inactive) in assay [7]; 1.24 µM (inactive) in assay [8]; 4.31 µM (inactive) in assay [9]; 1.44 µM (inactive) in assay [10]; 1.56 µM (inactive) in [11]; 3.04 µM (inactive) in assay [12]. For the same compound, the GI50 in assay [13] was 2.03 µM (inactive); in [14], 1.22 µM (inactive); in assay [15], 8.28 µM (inactive); in [16], 1.57 µM (inactive); in assay [17], 1.67 µM; in assay [18], 1.29 µM (inactive). Besides, the GI50 in assay [19] was 3.36 µM (inactive); in [20], 2.31 µM (inactive).
